Test results published in patent publication US20220298253A1, “TREATMENT OF RMS BY SWITCHING THERAPY” (Novartis AG, priority 2019, published 2022).
“Also recorded” adds a separate entry of the source. Like-named read-outs stand apart in the source and are kept apart here.

Legend:
MS patients [1] = assay: ASCLEPIOS I: loss of thalamus volume; assay type: in vivo, human; settings: for thalamus volume, mean percentage change between Month 24 and baseline: ASCLEPIOS I
Method: (§1) In ASCLEPIOS I patients were randomised (1:1) to receive either ofatumumab 20 mg sc injections every 4 weeks (after an initial loading regimen of 20 mg sc doses on Days 1, 7 and 14) or teriflunomide 14 mg orally once daily, for up to 30 months. Patients aged 18-55 years with an Expanded Disability Status Scale (EDSS) score (according to Kurtzke, Neurology. 1983, November; 33(11): 1444-52) of 0-5.5 at screening who experienced ≥1 relapse in the past year or ≥2 relapses in the past 2 years or a positive gadolinium-enhancing (Gd+) MM scan during the year before randomisation were included.

MS patients [2] = assay: ASCLEPIOS I: MSIS-29 impact score; assay type: in vivo, human
Method: The MSIS-29 version 2 is a 29-item, self-administered questionnaire that includes 2 domains: physical and psychological. Responses were captured on a 4-point ordinal scale ranging from 1 (not at all) to 4 (extremely), with higher scores reflecting greater impact on day-to-day life. The MSIS-29 takes about 5 minutes to complete and the questions are designed to determine the patient's views about the impact of MS on their day-to-day life during the past 2 weeks. Reference is made to Hobart J and Cano S (2009), “Improving the evaluation of therapeutic interventions in multiple sclerosis: the role of new psychometric methods”, Health Technol Assess; 13(12):iii, ix-x, […] to Hobart J, Lamping D, Fitzpatrick R, et al (2001), “The Multiple Sclerosis Impact Scale (MSIS-29): a new patient-based outcome measure”, Brain; 124(Pt 5):962-73.
as §1

[3] = test system: patients with multiple sclerosis; settings: cited from earlier work; for clinical and MRI course after anti-CD20 infusion: case reports, rebound after fingolimod cessation (Hatcher et al. 2016; Schmidt and Schulten 2019)
primary human B cells [4] = assay: Ofatumumab-induced CDC of freshly isolated primary human B cells; assay type: cell-based; settings: antibody and 30% human serum added simultaneously, 1 hour, flow cytometry; compared to ocrelizumab and rituximab; FIG. 2
primary human B cells [5] = assay: CDC after delayed addition of complement; assay type: cell-based; settings: cells washed, complement source added after 6 hours; FIG. 3
Method: In a second experiment, B cells were incubated with antibody as described before, albeit in the absence of a source of complement. Cells were washed as described previously. After 6 hours, the source of complement was added.

[6] = test system: patients with relapsing MS; assay: Number of relapses in patients switched from an earlier DMT to ofatumumab (Example 2); assay type: in vivo, human; settings: for Mean NURLP12: number of relapses in past 12 months (screening) / Mean NURLP24a: number of relapses in past 24 months (screening): before switch
Method: (§2) The effect of ofatumumab administered to patients who have been treated with DMTs other than ofatumumab has been investigated as described below.
(§3) Ofatumumab was provided in pre-filled syringes for subcutaneous administration containing 20 mg ofatumumab (50 mg/ml, 0.4 ml content). The matching placebo to ofatumumab pre-filled syringe had the same appearance as the investigational drug.
(§4) Ofatumumab arm: ofatumumab 20 mg s.c. injections on Day 1, 7, 14, Week 4 (Study Month 1) and every 4 weeks thereafter+teriflunomide-matching placebo capsule orally once daily.
(§5) Eligible patients can be randomized in a 1:1 ratio to either the active ofatumumab 20 mg group or to the active teriflunomide 14 mg group. The randomization was stratified by geographical region and by MS subtype (RRMS, SPMS).
(§6) Diagnosis of MS according to the 2010 Revised McDonald criteria (Polman et al. 2011).
(§7) Relapsing MS: relapsing-remitting course (RRMS), or secondary progressive (SPMS) course with disease activity, as defined by Lublin et al., 2014.
(§8) Disability status at Screening with an EDSS score of 0 to 5.5 (inclusive).
(§9) Patients previously treated with DMT selected from glatiramer acetate, dimethyl fumarate (DMF), daclizumab, fingolimod, natalizumab and laquinimod.
(§10) Documentation of at least: 1 relapse during the previous 1 year OR 2 relapses during the previous 2 years prior to Screening OR a positive Gd-enhancing MM scan during the year prior to randomization. Note: Screening MRI scan may be used if no positive Gd enhancing scan exist from prior year.
(§11) Neurologically stable within 1 month prior to randomization

[7] = test system: patients with relapsing MS; assay: Gd-enhancing T1 lesion numbers in patients switched from an earlier DMT to ofatumumab (Example 2); assay type: in vivo, human
Method: as §2, §3, §4, §5, §6, §7, §8, §9, §10, §11
The following results were obtained for the Gd lesion numbers.

[8] = Half-life of ofatumumab at steady state; assay type: in vivo; settings: following subcutaneous administration of repeated 20 mg doses
MS patients [9] = settings: cited from earlier work; for reduction in annualized relapse rate (ARR) compared to Aubagio (teriflunomide): p<0.001
[10] = earlier DMT fingolimod, ofatumumab 20 mg s.c.
[11] = earlier DMT fingolimod, ofatumumab 20 mg s.c., listed as OMB

C/C(O)=C(\C#N)C(=O)Nc1ccc(C(F)(F)F)cc1 [teriflunomide, reference compound]
thalamus volume, mean percentage change between Month 24 and baseline (MS patients [1]): −1.4% | mean change in MSIS-29 physical impact score from baseline (MS patients [2]; Month 6): −0.44 | mean change in MSIS-29 physical impact score from baseline (MS patients [2]; Month 12): 0.17 | mean change in MSIS-29 physical impact score from baseline (MS patients [2]; Month 18): 0.67 | mean change in MSIS-29 physical impact score from baseline (MS patients [2]; Month 24): 0.59 | mean change in MSIS-29 physical impact score from baseline (MS patients [2]; Month 30): 0.55

ocrelizumab: anti-CD20 mAb administered by intravenous infusion
clinical and MRI course after anti-CD20 infusion [3]: clinical worsening and new Gd-enhancing MRI lesions | EDSS course after administration ([3]; two patients, more than 3 months after fingolimod withdrawal, FIG. 1): significant Expanded Disability Status Scale (EDSS) progression

rituximab: anti-CD20 mAb administered by intravenous infusion
clinical and MRI course after anti-CD20 infusion [3]: clinical worsening; also recorded: persistent Gd-enhancing lesions

ofatumumab: recombinant human monoclonal immunoglobulin G1 (IgG1) antibody that binds to human CD20
induction of CDC (B cell lysis, SYTOX Blue+ cells) (primary human B cells [4]): strong concentration-dependent induction | induction of CDC after delayed addition of complement (primary human B cells [5]): potently induced CDC | Mean NCFRLP12: number of relapses up to month 12 post-first dose ([6]; earlier DMT DMF): 0.21 | Mean NCFRLP24: number of relapses up to month 24 post-first dose ([6]; earlier DMT DMF): 0.39 | Mean NURLP12: number of relapses in past 12 months (screening) ([6]; earlier DMT DMF): 1.11 | Mean NURLP24a: number of relapses in past 24 months (screening) ([6]; earlier DMT DMF): 2 | Mean NCFRLP12: number of relapses up to month 12 post-first dose ([6]; earlier DMT daclizumab): 0 | Mean NCFRLP24: number of relapses up to month 24 post-first dose ([6]; earlier DMT daclizumab): 0 | Mean NURLP12: number of relapses in past 12 months (screening) ([6]; earlier DMT daclizumab): 1 | Mean NURLP24a: number of relapses in past 24 months (screening) ([6]; earlier DMT daclizumab): 1.18 | Mean NURLP12: number of relapses in past 12 months (screening) ([6]; earlier DMT fingolimod): approx. 1.26 | Mean NURLP24a: number of relapses in past 24 months (screening) ([6]; earlier DMT fingolimod): 2.28 | Mean NURLP12: number of relapses in past 12 months (screening) ([6]; earlier DMT fingolimod, listed as OMB): 1.26 | Mean NCFRLP12: number of relapses up to month 12 post-first dose [6, 10]: approx. 0.23 | Mean NCFRLP24: number of relapses up to month 24 post-first dose [6, 10]: about 0.30 | Mean NCFRLP12: number of relapses up to month 12 post-first dose [6, 11]: 0.23 | Mean NCFRLP24: number of relapses up to month 24 post-first dose [6, 11]: 0.31 | Mean NCFRLP12: number of relapses up to month 12 post-first dose ([6]; earlier DMT glatiramer acetate): 0.10 | Mean NCFRLP24: number of relapses up to month 24 post-first dose ([6]; earlier DMT glatiramer acetate): 0.17 | Mean NURLP12: number of relapses in past 12 months (screening) ([6]; earlier DMT glatiramer acetate): 1.21 | Mean NURLP24a: number of relapses in past 24 months (screening) ([6]; earlier DMT glatiramer acetate): 2.13 | Mean NCFRLP12: number of relapses up to month 12 post-first dose ([6]; earlier DMT natalizumab): 0.13 | Mean NCFRLP24: number of relapses up to month 24 post-first dose ([6]; earlier DMT natalizumab): 0.2 | Mean NURLP12: number of relapses in past 12 months (screening) ([6]; earlier DMT natalizumab): 1.2 | Mean NURLP24a: number of relapses in past 24 months (screening) ([6]; earlier DMT natalizumab): 2.37 | Mean Gd lesion number ([7]; earlier DMT DMF, BASELINE): 2.02 | Mean Gd lesion number ([7]; earlier DMT DMF, Week 48): 0 | Mean Gd lesion number ([7]; earlier DMT DMF, Week 96): 0 | Mean Gd lesion number ([7]; earlier DMT daclizumab, BASELINE): 0.18 | Mean Gd lesion number ([7]; earlier DMT daclizumab, Week 48): 0 | Mean Gd lesion number ([7]; earlier DMT daclizumab, Week 96): 0 | Mean Gd lesion number ([7]; earlier DMT fingolimod, BASELINE): 2.95 | Mean Gd lesion number ([7]; earlier DMT fingolimod, Week 48): 0.03 | Mean Gd lesion number ([7]; earlier DMT fingolimod, Week 96): 0 | Mean Gd lesion number ([7]; earlier DMT glatiramer acetate, BASELINE): 1.52 | Mean Gd lesion number ([7]; earlier DMT glatiramer acetate, Week 48): 0.02 | Mean Gd lesion number ([7]; earlier DMT glatiramer acetate, Week 96): 0.02 | Mean Gd lesion number ([7]; earlier DMT natalizumab, BASELINE): 2.5 | Mean Gd lesion number ([7]; earlier DMT natalizumab, Week 48): 0.04 | Mean Gd lesion number ([7]; earlier DMT natalizumab, Week 96): 0 | thalamus volume, mean percentage change between Month 24 and baseline (MS patients [1]): −1.00% | thalamus volume change, mean difference ofatumumab vs teriflunomide (MS patients [1]; Month 24, p=0.002): 0.40 | mean change in MSIS-29 physical impact score from baseline (MS patients [2]; Month 6): −2.75 | MSIS-29 physical impact score, mean difference ofatumumab vs teriflunomide (MS patients [2]; Month 6, p=0.017): −2.30 | mean change in MSIS-29 physical impact score from baseline (MS patients [2]; Month 12): −2.43 | MSIS-29 physical impact score, mean difference ofatumumab vs teriflunomide (MS patients [2]; Month 12, p=0.009): −2.59 | mean change in MSIS-29 physical impact score from baseline (MS patients [2]; Month 18): −2.37 | MSIS-29 physical impact score, mean difference ofatumumab vs teriflunomide (MS patients [2]; Month 18, p=0.005): −3.05 | mean change in MSIS-29 physical impact score from baseline (MS patients [2]; Month 24): −2.6 | MSIS-29 physical impact score, mean difference ofatumumab vs teriflunomide (MS patients [2]; Month 24, p=0.008): −3.19 | mean change in MSIS-29 physical impact score from baseline (MS patients [2]; Month 30): −3.21 | MSIS-29 physical impact score, mean difference ofatumumab vs teriflunomide (MS patients [2]; Month 30, p=0.026): −3.76 | MSIS-29 psychological impact score vs teriflunomide treatment group (MS patients [2]; difference statistically significant only at Month 12): stronger reduction | half-life at steady state [8]: approximately 16 days | suppression of gadolinium (Gd) T1 lesions compared to Aubagio (MS patients [9]; ASCLEPIOS I/II): highly significant suppression | annualized relapse rate (ARR) (MS patients [9]; ASCLEPIOS I): 0.11 | reduction in annualized relapse rate (ARR) compared to Aubagio (teriflunomide) (MS patients [9]; ASCLEPIOS I): 50.5% | annualized relapse rate (ARR) (MS patients [9]; ASCLEPIOS II): 0.10 | reduction in annualized relapse rate (ARR) compared to Aubagio (teriflunomide) (MS patients [9]; ASCLEPIOS II): 58.5% | relative risk reduction in 3-month confirmed disability progression (CDP) versus Aubagio (MS patients [9]; pre-specified pooled analyses, p=0.002): 34.4% | relative risk reduction in 6-month confirmed disability progression (CDP) versus Aubagio (MS patients [9]; pre-specified pooled analyses, p=0.012): 32.5%
